The results in this text go back to PubChem BioAssay (NCI).

SMILES strings stand for the structures.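 Cultured in 96-well plates, cells were exposed to test compound for 48 hours across five concentrations. GI50 = concentration required for 50% inhibition of growth. TGI marks complete inhibition of growth.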

The test deals with MDA-MB-468 breast. In words: NCI-60 cell line screen, 48 h.
Consider `CCOC(=O)C1=C(N)CCC1C` (stereo not given), for which the GI50 was above 100000 nM and the TGI is above 100000 nM. For `O=C(O[C@H]1CN[C@H](C#Cc2cc3ncnc(Nc4ccc5c(cnn5Cc5ccccc5)c4)c3s2)C1)N1CCOCC1`, the GI50 is 209 nM and the TGI turned out to be 2580 nM. For the compound `Cc1cc(C(=O)NC(C)(C)C)cc(C#Cc2ccc3c4c(oc3c2)C(C)(C)c2cc(NS(C)(=O)=O)ccc2C4=O)n1`, the GI50 was 3180 nM and the TGI was above 100000 nM. `COc1cc(-c2cc(/C=C/C(=O)c3ccc(N)cc3)[nH]n2)cc(OC)c1OC`: the GI50 is 1010 nM and the TGI was found to be 2910 nM. Taken in the same sequence, the figures for `CN1C(=O)N(C)C2C1NN=c1s/c(=C\c3ccccc3F)c(=O)n12` (stereo not given) were 211 nM and above 100000 nM. With `O=C1/C(=C/c2ccc(O)c(O)c2)COc2ccc(-c3ccccc3)cc21`, the GI50 was 731 nM and the TGI was determined as 2640 nM. With `CCN(CC)CCOc1nc2c3ccc(Cl)cc3nn2c2ccccc12`, the GI50 was 1510 nM and the TGI came to 3570 nM.

Take `Clc1ccc(N2CCN(CCCN3CCN(c4cccc(Cl)c4)CC3)CC2)cc1`: the GI50 was 1630 nM and the TGI is 10800 nM. Regarding `CC(C)CCC[C@@H](C)[C@H]1CCC2C3=CCn4c(=O)ccc(=O)n4C3CC[C@@]21C` (stereo not given in full), the GI50 was 887 nM and the TGI is 2980 nM.

In the case of `CSCCC(NC(=O)CNC(=O)C(CC(=O)O)NC(=O)C(NC(=O)C(NC(=O)C(NC(=O)CNC(=O)C(CCC(N)=O)NC(=O)C(CCSC)NC(=O)C(CC(=O)O)NC(=O)C(C)NC(=O)C(C)NC(=O)C(NC(=O)C(CO)NC(=O)C(N)CC(C)C)C(C)O)C(C)C)C(C)C)C(C)O)C(=O)NC(C)C(=O)NC(CO)C(=O)NCC(=O)NC(CC(C)C)C(=O)NC(CC(=O)O)C(=O)NC(CCCCN)C(=O)NC(CC(=O)O)C(=O)NC(Cc1ccc(O)cc1)C(=O)NC(CC(C)C)C(=O)NC(CCCCN)C(=O)N1CCCC1C(=O)NC(CC(=O)O)C(=O)NC(CC(=O)O)C(=O)O` (stereo not given), the GI50 is above 82500 nM and the TGI is above 82500 nM. In the case of `Oc1ccccc1N=Cc1c(O)ccc2ccccc12`, the GI50 was 7090 nM and the TGI was 29500 nM. Taken in the same sequence, the figures for `Cn1c2c(c3ccc(-c4ccn[nH]4)cc3c1=O)C(=O)c1ccccc1-2` were 4900 nM and above 100000 nM. For `CCOC(=O)c1ccc2[nH]c(O)c(C(=Nc3ccc(N(C)C(=O)CN4CCN(C)CC4)cc3)c3ccccc3)c2c1`, in that order: 827 nM and 2290 nM. For `C[C@H](O)CNc1cc(-c2[nH]c3cccnc3c2-c2ccc(F)cc2)ccn1`, in that order: 7540 nM and above 25000 nM. `O=C(COc1cccc(/C=C2/Oc3ccccc3C2=O)c1)Nc1nccs1`: the GI50 was 2160 nM and the TGI was determined as 9070 nM.

As to `COc1ccc(C(=O)n2nc(/C=C/c3ccc(O)c(OC)c3)cc2/C=C/c2ccc(O)c(OC)c2)cc1`, the GI50 is 370 nM and the TGI was 2000 nM.

In the case of `Cc1cc(C)c(C#N)c(SCC(=O)c2sc3c(C#N)c(C)cc(C)[n+]3c2[O-])n1`, the GI50 was 266 nM.

On to `Cc1ccc(-c2cc3c(NC(=O)C4CC4)ncnc3o2)cc1`, for which the GI50 is above 25000 nM and the TGI is above 25000 nM.

Consider `O=C(Nc1ccc(Cl)cc1)Nc1ccc(Oc2nncc3ccccc23)cc1`, for which the GI50 was 752 nM and the TGI was found to be 2520 nM.

As for `Cc1ccc(NCCN2CCCCC2)c2c(=O)c3ccccc3sc12`, the GI50 is 2380 nM and the TGI amounted to 5190 nM. Regarding `COC(=O)C1CCC(NC(=O)c2csc([C@@H](C[C@H](C(C)C)N(C)C(=O)[C@@H](NC(=O)[C@H]3CCCCN3C)C(C)C)OC(C)=O)n2)CC1` (stereo not given in full), the GI50 is 2.45 nM and the TGI turned out to be 6.83 nM. With `CN1CCN(c2ccc(N3Cc4ccccc4OC4=C3C(=O)c3c(O)ccc(O)c3C4=O)cn2)CC1`, the GI50 was 229 nM and the TGI was 578 nM. For the compound `COc1ccccc1/C=C/C=N/NC1=NC2C(S1)N(C)C(=O)N2C` (stereo not given), the GI50 was 2130 nM and the TGI was found to be 7460 nM.

`CCN(CC)CCNC(=O)c1cn2ncnc(Oc3ccc(NC(=O)Nc4ccc(Cl)c(C(F)(F)F)c4)cc3)c2c1C`: the GI50 was 1670 nM and the TGI turned out to be 3290 nM. Take `CCc1c2c(nc3ccc(OC(=O)NCc4ccc(B5OC(C)(C)C(C)(C)O5)cc4)cc13)-c1cc3c(c(=O)n1C2)COC(=O)[C@]3(O)CC`: the GI50 is below 12.6 nM and the TGI was determined as 89.4 nM. Take `O=C1c2ccccc2C(=O)c2c1ccc(C(Br)Br)c2Cl`: the GI50 was 2000 nM and the TGI worked out at 4540 nM. With `CS(=O)(=O)Nc1ccc(Nc2c3ccccc3nc3cc(N)ccc23)cc1`, the GI50 was 106 nM and the TGI is 973 nM. Turning to `CN(C)c1ccc(-c2c(NC(C)(C)C)nc3c(OCCc4ccccc4)cccn23)cc1`, the GI50 is 2290 nM and the TGI stood at 6280 nM.
